Here are results for 68 molecules from PubChem BioAssay AID1361 (SRMLSC, 2008).

The source made the active and inactive calls. The rule behind the calls is not given here. Bounds are passed on as bounds.

This test in a line: mitochondrial fusion inhibitors, confirmation, cell-based, chemical genetic, wild-type and mutant (AID 1361). As to conditions: Cell-based mitochondrial fusion phenotype, imaging.
The mark [1] stands for this setting: mutant cells, measured here: mutant cell line IC50.

Consider `C1CCN=C(Nc2nc3c(s2)CCCC3)CC1`, for which the IC50 (WT cells) is > 25 µM (inactive) and the IC50 under setting [1] was > 25 µM.
The corresponding values for `COc1ccc(OCCC(=O)N2CCCCC2)cc1` are > 25 µM (inactive) and > 25 µM.
The corresponding values for `COc1ccc(CCn2nnnc2C(CC(C)C)N2CCN(c3ncccn3)CC2)cc1OC` (stereo unspecified) are > 25 µM (inactive) and > 25 µM.
In the case of `COc1ccc(NC(=S)N(CCc2c(C)[nH]c3ccc(C)cc23)Cc2ccco2)cc1`, the IC50 was 8.8 µM (WT cells) and > 25 µM under setting [1].
Regarding `COc1ccc(/C=C/C(=O)N2CCN(c3ccccn3)CC2)c2ccccc12`, the half-inhibitory concentration (IC50) is 19.9 µM (WT cells) and > 25 µM under setting [1].
As to `O=c1cc(N2CCCCC2)c(-c2ccccc2)nn1Cc1ccc(F)cc1`, the half-inhibitory concentration (IC50) is 17.4 µM (WT cells) and > 25 µM under setting [1].
As for `Cc1cccc(Cn2nc(-n3cccc3)c3c(C)cc(C)nc32)c1`, the IC50 was > 25 µM (inactive) (WT cells) and > 25 µM under setting [1].
The corresponding values for `Cc1ccc(-c2cc(C(F)F)n3ncc(C(=O)N4CCN5CCCC5C4)c3n2)cc1` (stereo unspecified) are > 25 µM (inactive) and > 25 µM.
The corresponding values for `CC(C)=C1C2CCC1C(C(=O)Nc1sc(C)c(-c3ccc(C(C)C)cc3)c1C(N)=O)C2C(=O)O` (stereo unspecified) are 20.8 µM and > 25 µM.
The matching figures for `Cc1ccc(NC(=O)C2SC(=Nc3ccccc3)C(C(=O)Nc3ccc(Cl)cc3)=C2N)cc1` (stereo unspecified): > 25 µM (inactive) and > 25 µM.
Consider `c1ccc2c(c1)[nH]c1c(N3CCCC3)ncnc12`, for which the IC50 is, setting by setting: (WT cells) > 25 µM (inactive); under setting [1], > 25 µM.
With `Cc1ccc(C)c(C(=O)COC(=O)c2cc([N+](=O)[O-])ccc2NCCO)c1`, the IC50 is, setting by setting: (WT cells) 25 µM (inactive); under setting [1], > 12.5 µM.
On to `CC1(C)CC(=O)C2=C(C1)N(c1ccc(F)cc1)C(=O)C2(O)C(F)(F)F` (stereo unspecified), for which the IC50 reads like this: (WT cells) > 25 µM (inactive); under setting [1], > 12.5 µM.
In the case of `CCOC(=O)c1sc(/N=C/c2c(C)[nH]n(-c3ccccc3)c2=O)c(C#N)c1C`, the IC50 (WT cells) was > 25 µM (inactive) and the IC50 under setting [1] was > 25 µM.
The corresponding values for `CC#C[C@]1(O)CC[C@H]2[C@@H]3CCC4=CC(=O)CCC4=C3[C@@H](c3ccc(N(C)C)cc3)C[C@@]21C` are 20.9 µM and > 25 µM.
Regarding `CC(Sc1ccc(Cl)cc1)C(=O)Nc1ccccc1-c1ccccc1` (stereo unspecified), the IC50 runs as follows: (WT cells) 13 µM; under setting [1], > 25 µM.
The corresponding values for `COc1ccc(NP(=O)(Oc2ccc(Cl)cc2)Oc2ccc(Cl)cc2)cc1OC` are 12.6 µM and > 25 µM.
The corresponding values for `CCOc1ccccc1-n1c(CN2CCN(C(=O)c3ccco3)CC2)nc2ccccc2c1=O` are > 25 µM (inactive) and > 25 µM.
The matching figures for `O=C(CN1CCc2ccccc2C1)Nc1ccccc1N1CCCCCC1`: 10.3 µM and > 25 µM.
As for `CC12CCC(c3c(C(=O)O)nn(-c4ccc(F)cc4)c31)C2(C)C` (stereo unspecified), the IC50 (WT cells) is > 25 µM (inactive) and the half-maximal inhibitory concentration (IC50) under setting [1] is > 25 µM.
The corresponding values for `O=c1c2c3c(sc2nc2n1CCC2)CCC3` are > 25 µM (inactive) and > 25 µM.
As to `CC1CC(C)CN(C2CCN(Cc3cccnc3)CC2)C1` (stereo unspecified), the IC50 (WT cells) is > 25 µM (inactive) and the IC50 under setting [1] is > 25 µM.
The matching figures for `Cc1cc(=O)[nH]c(SCC(N)=O)c1C#N`: > 25 µM (inactive) and > 25 µM.
The corresponding values for `CCOC(=O)C1=C(C)NC(=S)NC1c1ccc(-c2ccc(Cl)cc2)o1` (stereo unspecified) are 10.4 µM and 24.2 µM.
With `COC(=O)CCC(=O)COc1ccc(OC)cc1C#N`, the IC50 reads like this: (WT cells) > 25 µM (inactive); under setting [1], > 25 µM.
The corresponding values for `CCCCNC(=O)C1CCN(S(=O)(=O)c2cnc[nH]2)CC1` are > 25 µM (inactive) and > 25 µM.
The corresponding values for `O=C(COC(=O)Cc1c(Cl)cccc1Cl)Nc1ccccc1-c1ccccc1` are 13.3 µM and > 25 µM.
The matching figures for `Cc1csc(NC(=O)c2c(O)c3c(n(CC(C)C)c2=O)CCCC3)n1`: 14.7 µM and > 25 µM.
`CC1(C)C=Cc2c(c3c(c4c(=O)c(-c5ccc(O)cc5)coc24)OC(C)(C)CC3)O1`: the concentration for half-maximal inhibition (IC50) (WT cells) is 14 µM and the half-maximal inhibitory concentration (IC50) under setting [1] is 24.4 µM.
Regarding `CCN(CC)C(=O)C1CC(=O)N(c2ccc(F)c(Cl)c2)C1` (stereo unspecified), the IC50 is, setting by setting: (WT cells) > 25 µM (inactive); under setting [1], > 25 µM.
The matching figures for `CCCCc1cc2c(s1)CCCC/C2=N/O`: > 25 µM (inactive) and > 25 µM.
With `CSC(=S)N/N=C/c1c[nH]c2ccccc12`, the IC50 was 7.53 µM (WT cells) and 11.2 µM under setting [1].
The matching figures for `CCOC(=O)C1CCCN(C(=O)CS(=O)(=O)Cc2ccccc2)C1` (stereo unspecified): > 25 µM (inactive) and > 25 µM.
The matching figures for `CCC(C)c1ccc(NC(=O)COc2c(F)c(F)c(C(F)(F)F)c(F)c2F)cc1` (stereo unspecified): 8.03 µM and > 25 µM.
The matching figures for `CCn1nccc1C(=O)Nc1ccc(S(=O)(=O)NC23CC4CC(CC(C4)C2)C3)cc1`: > 25 µM (inactive) and > 25 µM.
Consider `O=c1c2ccccc2nc2n1C1(CCCCC1)Cc1ccccc1-2`, for which the IC50 was 23.4 µM (WT cells) and > 25 µM under setting [1].
Regarding `Nc1ccc2nn(-c3ccccc3)nc2c1`, the IC50 runs as follows: (WT cells) > 25 µM (inactive); under setting [1], > 25 µM.
The matching figures for `CCOC(=O)N1CCN(C(=O)CN(C)S(=O)(=O)c2ccc3c(c2)C(C)(C)C(=O)N3C)CC1`: > 25 µM (inactive) and > 25 µM.
On to `CN1CC(c2ccccc2)C2(SC(=S)N(Cc3ccco3)C2=O)C12C(=O)Nc1ccccc12` (stereo unspecified), for which the IC50 (WT cells) is 6.9 µM and the IC50 under setting [1] turned out to be 12 µM.
Consider `CCOC(=O)c1sc(NC(=O)/C=C/c2cnn(CC)c2C)c(C(=O)OCC)c1C`, for which the IC50 runs as follows: (WT cells) > 25 µM (inactive); under setting [1], > 25 µM.
The matching figures for `Cc1ccc(C)c(N2CCN(C(=O)Cc3cn(C)c4ccccc34)CC2)c1`: 21.9 µM and > 25 µM.
Consider `CCC(C)(C)c1ccc(Oc2ccc(N)cc2)cc1`, for which the IC50 (WT cells) is > 25 µM (inactive) and the IC50 under setting [1] was > 25 µM.
The matching figures for `CCN(Cc1cc2cc(C)ccc2[nH]c1=O)C(=O)c1cccc(OC)c1`: > 25 µM (inactive) and > 25 µM.
For `O=c1cc2c(nn1Cc1ccc(Cl)cc1Cl)-c1ccccc1CC2`, the 50% inhibitory concentration (IC50) (WT cells) was 10.6 µM and the IC50 under setting [1] stood at 17.8 µM.
Take `CCCc1cc(-c2nc(N)ncc2-c2ccc3c(c2)OCCCO3)c(O)cc1OC`: the IC50 (WT cells) was 14 µM and the IC50 under setting [1] is > 25 µM.
On to `Cc1ccc2c(CSc3nnc(C4CC4)n3N)cc(=O)oc2c1C`, for which the IC50 reads like this: (WT cells) > 25 µM (inactive); under setting [1], > 25 µM.
The matching figures for `CCCN(Cc1ccccc1)C(=S)Nc1ccc(SC(F)F)cc1`: 20.6 µM and > 25 µM.
As to `CCN(CC)c1nc(-c2ccccc2)ncc1S(=O)(=O)c1ccc(C)cc1`, the half-inhibitory concentration (IC50) is, setting by setting: (WT cells) 11 µM; under setting [1], > 25 µM.
The matching figures for `Cc1cccc(NC(=S)N=Nc2c(O)[nH]c3ccccc23)c1`: > 25 µM (inactive) and > 25 µM.
The corresponding values for `Cc1ccccc1NS(=O)(=O)c1cc(C(=O)N2CCc3ccccc3C2)ccc1C` are > 25 µM (inactive) and > 25 µM.
The matching figures for `O=S(=O)(Nc1ccc(O)c(Sc2nc3ccccc3s2)c1)c1cccc2ccccc12`: 10.8 µM and > 25 µM.
As for `CCN(CC)c1ccc(/C=N/NC(=S)NCc2ccco2)cc1`, the IC50 runs as follows: (WT cells) 11.6 µM; under setting [1], > 25 µM.
In the case of `COC(=O)c1c(NC(=O)CN2CCC3(O)CCCCC3C2c2ccc(OC)cc2OC)sc(C)c1C` (stereo unspecified), the concentration for half-maximal inhibition (IC50) by setting is: (WT cells) 14.9 µM; under setting [1], > 25 µM.
Regarding `COc1ccc(NC(=O)CSc2ccc3c(c2)OCCO3)cc1OC`, the IC50 by setting is: (WT cells) > 25 µM (inactive); under setting [1], > 25 µM.
As for `Cc1ccc(C(C(=O)NC2CCCC2)N(C(=O)Cc2cccs2)c2ccc(C)c(C)c2)o1` (stereo unspecified), the 50% inhibitory concentration (IC50) was 22.4 µM (WT cells) and > 25 µM under setting [1].
The matching figures for `Cc1ccc(C(=O)Nc2cc(Cl)ccc2N2CCCCC2)s1`: 7.64 µM and > 25 µM.
The corresponding values for `C(=N\Nc1nc(Nc2ccccc2)nc(Nc2ccccc2)n1)/c1cccnc1` are 20.9 µM and > 25 µM.
For `CCC1Oc2ccc(C)cc2N(CC(=O)NCCCN2CCCCC2CC)C1=O` (stereo unspecified), the IC50 is, setting by setting: (WT cells) > 25 µM (inactive); under setting [1], > 25 µM.
As for `Cc1ccc(C)c(NC(=O)c2cc(-c3ccccc3)nn2-c2ccccc2)c1`, the IC50 (WT cells) was 4.99 µM and the IC50 under setting [1] was > 25 µM.
With `Cc1nc(C)c(-c2csc(Nc3cccc(O)c3)n2)s1`, the IC50 was > 25 µM (inactive) (WT cells) and > 25 µM under setting [1].
For the molecule `O=C(Nc1ccccn1)c1ccco1`, the IC50 by setting is: (WT cells) > 25 µM (inactive); under setting [1], > 25 µM.
Consider `CC(C)(C)c1ccc(OCC(=O)N2CCCCCC2)c(Br)c1`, for which the IC50 was > 25 µM (inactive) (WT cells) and > 25 µM under setting [1].
The corresponding values for `CCOC(=O)N1CCN(S(=O)(=O)c2ccc(C)c(C)c2)CC1` are > 25 µM (inactive) and > 25 µM.
As for `CCOc1cc(C2Nc3ccccc3C(=O)N2c2ccccc2OC)ccc1O` (stereo unspecified), the IC50 is, setting by setting: (WT cells) > 25 µM (inactive); under setting [1], > 25 µM.
As to `COc1ccc(NS(=O)(=O)c2cc(C(=O)O)ccc2C)cc1`, the IC50 reads like this: (WT cells) > 25 µM (inactive); under setting [1], > 25 µM.
Regarding `CCOc1ccccc1NC(=O)C(OC(=O)c1ccc(O)cc1)c1ccccc1` (stereo unspecified), the IC50 reads like this: (WT cells) 9.83 µM; under setting [1], > 25 µM.
As to `CC(NC(=O)COc1ccccc1-c1ccccc1)c1ccccc1` (stereo unspecified), the IC50 (WT cells) is 15 µM and the concentration for half-maximal inhibition (IC50) under setting [1] was > 25 µM.
The corresponding values for `O=C(CN1CCCCC1)Nc1ccc(Br)cc1C(=O)c1ccccc1Cl` are 12 µM and > 25 µM.

As a reminder, the IC50 is the concentration that gives 50% inhibition.
